Results: patent publication US10029993B2, “Disubstituted 1, 2, 4-triazine compound” (MITSUBISHI TANABE PHARMA CORPORATION, priority 2014, dated 2018)

What follows are compounds tested against human CYP11B2 (Homo sapiens (Human), UniProt P19099) (assay: Inhibitory effect on hCYP11B2 (aldosterone production by mitochondrial fraction of V79 cells stably expressing human CYP11B2, HTRF)). Details: 0.5 μmol/L deoxycorticosterone, 150 μmol/L NADPH, 1.5-2 hours at room temperature.
Format: biochemical
Experimental: Experimental Example 1 (Inhibitory Effect on hCYP11B2)
The pcDNA3.1-human CYP11B2 plasmid was transfected into a Chinese hamster lung fibroblast V79 cell line to produce a cell line stably expressing human CYP11B2 gene.
The cells were cultured and grown in the Dulbecco's modified Eagle's/Ham's medium supplemented with 10% fetal bovine serum and 1% G418 disulfate solution under the environment of 37° C., 95% air, and 5% CO2, and the grown cells were harvested.
Then, the cells were fractionated to obtain mitochondria by reference to a method described in Chabre et al. JCE 86 M 85 (11) 4060-68, 2000. In particular, the cells suspended in a 5 mmol/L Tris-HCl buffer (pH 7.4) containing 250 mmol/L sucrose were homogenized in a Teflon (Registered Trademark) Potter Elvehjem homogenizer, and then the suspension was centrifuged (800×g, 15 min.). The supernatant was separated and again centrifuged (10000×g, 15 min.) to obtain a pellet (mitochondrial fraction).
The mitochondrial fraction diluted with a buffer containing 10 mmol/L KH2PO4, 10 mmol/L Tris, 20 mmol/L KCl, 25 mmol/L sucrose, 5 mmol/L MgCl2, and 0.05% bovine serum albumin was dispensed to a 96-well plate. 0.5 μmol/L Deoxycorticosterone, 150 μmol/L NADPH and a compound of each concentration were added to each well, and incubated for 1.5-2 hours at room temperature to produce aldosterone. An amount of the produced aldosterone in the incubated solution was determined by using HTRF (Homogeneous Time Resolved Fluorescence) method.
IC 50 (nmol/L) was calculated by analyzing the aldosterone production inhibition rate (%) of each concentration of compounds by non-linear regression to a logistic curve.

Sequence of human CYP11B2 (P19099 25-503): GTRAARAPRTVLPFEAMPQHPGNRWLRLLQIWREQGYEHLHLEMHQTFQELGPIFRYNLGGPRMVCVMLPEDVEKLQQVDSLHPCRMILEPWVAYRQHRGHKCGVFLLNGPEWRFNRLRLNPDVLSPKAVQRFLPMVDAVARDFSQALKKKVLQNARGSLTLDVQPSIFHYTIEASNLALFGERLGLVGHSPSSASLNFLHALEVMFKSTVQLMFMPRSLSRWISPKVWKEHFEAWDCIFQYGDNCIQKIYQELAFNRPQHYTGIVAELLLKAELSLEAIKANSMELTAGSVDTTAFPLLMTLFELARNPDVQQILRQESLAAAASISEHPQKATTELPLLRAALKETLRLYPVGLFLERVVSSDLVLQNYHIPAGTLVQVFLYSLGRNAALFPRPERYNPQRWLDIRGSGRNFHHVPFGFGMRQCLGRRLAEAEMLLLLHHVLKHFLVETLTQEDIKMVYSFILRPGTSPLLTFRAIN

SMILES | IC50 [µM]
CN(C)[C@H]1CC[C@H](NC(=O)C(O)C2CCN(c3nncc(-c4ccc(F)cc4)n3)CC2)CC1 (relative stereo) [Example 252, 3-[4-[[[trans-4-(dimethylamino)cyclohexyl]carbamoyl]hydroxymethyl]piperidino]-5-(4-fluorophenyl)-1,2,4-triazine] | 0.015
CC(C)[C@@H](CO)NC(=O)CN1CCN(c2nncc(-c3ccc(C(F)(F)F)cc3)n2)CC1 [Example 16] | 0.016
CN(C)[C@H]1CC[C@H](NC(=O)CN2CCN(c3nncc(-c4ccc(Cl)cc4)n3)CC2)CC1 [Example 18] | 0.0079
CO[C@H]1CC[C@H](NC(=O)CN2CCN(c3nncc(-c4ccc5c(cnn5C)c4)n3)CC2)CC1 [Example 19] | 0.017
O=C1CN([C@H]2CC[C@H](NC(=O)CN3CCN(c4nncc(-c5ccc(F)cc5)n4)CC3)CC2)CCN1 [Example 26] | 0.0085
O=C(CN1CCN(c2nncc(-c3ccc(Cl)cc3)n2)CC1)NC1CCS(=O)(=O)CC1 [Example 27] | 0.013
O=C(CN1CCN(c2nncc(-c3ccc(F)cc3)n2)CC1)N[C@H]1CC[C@H](N2CCOCC2)CC1 [Example 28] | 0.0084
O=C(CN1CCN(c2nncc(-c3ccc(F)cc3)n2)CC1)NC1CCN(CC(=O)N2CCOCC2)CC1 [Example 38] | 0.014
CNC(=O)CN1CCC(NC(=O)CN2CCN(c3nncc(-c4ccc(F)cc4)n3)CC2)CC1 [Example 44] | 0.017
O=C(CN1CCN(c2nncc(-c3ccc(F)cc3)n2)CC1)NCCN1CCS(=O)(=O)CC1 [Example 47] | 0.011
CC(=O)N[C@H]1CC[C@H](NC(=O)CN2CCN(c3nncc(-c4ccc(C)cc4)n3)CC2)CC1 [Example 48] | 0.009
Cc1ccc(-c2cnnc(N3CCN(CC(=O)N[C@H]4CC[C@H](S(C)(=O)=O)CC4)CC3)n2)cc1 [Example 50] | 0.0063
CN1CC[C@H](NC(=O)CN2CCN(c3nncc(-c4ccc(Cl)cc4)n3)CC2)CC1=O [Example 54] | 0.0072
CNC(=O)CO[C@H]1CC[C@H](NC(=O)CN2CCN(c3nncc(-c4ccc(F)cc4)n3)CC2)CC1 [Example 55] | 0.0087
NC(=O)N1CCC(O)(CNC(=O)CN2CCN(c3nncc(-c4ccc(Cl)cc4)n3)CC2)CC1 [Example 59] | 0.019
Cc1ccc(-c2cnnc(N3CCN(CC(=O)NC4CCN(CCNS(C)(=O)=O)CC4)CC3)n2)cc1 [Example 62] | 0.01
CN(C)C(=O)Cn1cc(NC(=O)CN2CCN(c3nncc(-c4ccc(F)cc4)n3)CC2)cn1 [Example 71] | 0.0061
Cc1ccc(-c2cnnc(N3CCN(CC(=O)Nc4cnn(CC(=O)N(C)C)c4)CC3)n2)cc1 [Example 75] | 0.0076
CN(C)C(=O)Cn1cc(NC(=O)CN2CCN(c3nncc(-c4ccc(Cl)cc4)n3)CC2)cn1 [Example 76] | 0.0045

SMILES | IC50 [µM]
CNC(=O)Cn1cc(NC(=O)CN2CCN(c3nncc(-c4ccc(C)cc4)n3)CC2)cn1 [Example 79] | 0.0045
CNC(=O)Cn1cc(NC(=O)CN2CCN(c3nncc(-c4ccc(F)cc4)n3)CC2)cn1 [Example 80] | 0.0045
CNC(=O)Cn1cc(NC(=O)CN2CCN(c3nncc(-c4ccc(Cl)cc4)n3)CC2)cn1 [Example 81] | 0.0027
CN1CCNC(=O)C12CCC(NC(=O)CN1CCN(c3nncc(-c4ccc(F)cc4)n3)CC1)CC2 (stereo not drawn) [Example 82] | 0.012
CN(C)[C@H]1CC[C@H](NC(=O)CN2CCN(c3nncc(-c4cc(F)ccc4F)n3)CC2)CC1 [Example 83] | 0.0076
CN1CC[C@H](NC(=O)CN2CCN(c3nncc(-c4ccc5c(c4)COC5)n3)CC2)CC1=O [Example 84] | 0.025
CNC(=O)CN1CCC(NC(=O)CN2CCN(c3nncc(-c4ccc(C)cc4)n3)CC2)CC1 [Example 85] | 0.0099
Cc1ccccc1-c1cnnc(N2CCN(CC(=O)Nc3cccnc3)CC2)n1 [Example 86] | 0.0005
O=C(CN1CCN(c2nncc(-c3ccc(F)cc3)n2)CC1)NC1CN(C(=O)C2(O)CC2)C1 [Example 141] | 0.011
Cc1ncc(CN2CCC(NC(=O)CN3CCN(c4nncc(-c5ccc(F)cc5)n4)CC3)CC2)[nH]1 [Example 147] | 0.018
O=C(CN1CCN(c2nncc(-c3ccc(F)cc3)n2)CC1)NC1CCN(CC2=NCCN2)CC1 [Example 151, 3-[4-[[1-[(4,5-dihydro-1H-imidazol-2-yl)methyl]piperidin-4-yl]carbamoylmethyl]piperazin-1-yl]-5-(4-fluorophenyl)-1,2,4-triazine] | 0.016
Cc1nc[nH]c1CN1CCC(NC(=O)CN2CCN(c3nncc(-c4ccc(F)cc4)n3)CC2)CC1 [Example 153] | 0.018
Cc1nc[nH]c1CN1CCC(NC(=O)CN2CCN(c3nncc(-c4ccc(Cl)cc4)n3)CC2)CC1 [Example 154] | 0.0011
O=C(CN1CCN(c2nncc(-c3ccc(C(F)(F)F)cc3)n2)CC1)NC1CC2COCC(C1)C2O (stereo not drawn) [Example 157a, 3-[4-[[(7-exo-9-endo)-9-hydroxy-3-oxabicyclo[3.3.1]nonan-7-yl]carbamoylmethyl]piperazin-1-yl]-5-(4-trifluoromethylphenyl)-1,2,4-triazine] | 0.014
CN1CCO[C@@H](CNC(=O)CN2CCN(c3nncc(-c4ccc(F)cc4)n3)CC2)C1 [Example 159a, 5-(4-fluorophenyl)-3-[4-[[(4-methylmorpholyn-2-yl)methyl]carbamoylmethyl]piperazin-1-yl]-1,2,4-triazine] | 0.0077
Cc1ccccc1-c1cnnc(N2CCN(c3ccc(F)cc3)CC2)n1 [Example 170, 3-[4-(4-fluorophenyl)piperazin-1-yl]-5-(o-tolyl)-1,2,4-triazine] | 0.023
Clc1ccc(-c2cnnc(N3CCN(C4CCOCC4)CC3)n2)cc1 [Example 178] | 0.005
CC(C)NC(=O)NC1CCN(c2nncc(-c3ccc(F)cc3)n2)CC1 [Example 180] | 0.0061
Cc1ccccc1-c1cnnc(N2CCC(CCCO)CC2)n1 [Example 183] | 0.0007

SMILES | IC50 [µM]
Cc1ccccc1-c1cnnc(N2CC[C@@H](Oc3ccncc3)C2)n1 [Example 188] | 0.006
CN(CCCS(C)(=O)=O)c1nncc(-c2ccc3ccccc3c2)n1 [Example 192] | 0.038
CC(=O)N1CCC(CNc2nncc(-c3ccc4ccccc4c3)n2)CC1 [Example 196] | 0.067
O=C1NCC2(CCN(c3nncc(-c4ccc5ccccc5c4)n3)CC2)O1 [Example 199] | 0.012
Cn1c(-c2cnnc(N3CCOCC3)n2)cc2ccccc21 [Example 211, 5-(1-methyl-1H-indol-2-yl)-3-morpholino-1,2,4-triazine] | 0.0024
CC(C)NC(=O)CN1CCN(c2nncc(-c3ccc(C#N)nc3)n2)CC1 [Example 215, 5-(2-cyano-5-pyridyl)-3-[4-(isopropylcarbamoylmethyl)piperazin-1-yl]-1,2,4-triazine] | 0.029
CC(C)NC(=O)CN1CCN(c2nncc(-c3cccc4c3COCC4)n2)CC1 [Example 218] | 0.0098
CC(C)NC(=O)CN1CCN(c2nncc(-c3ccc4c(c3)CCO4)n2)CC1 [Example 219] | 0.0031
CC(C)NC(=O)CN1CCN(c2nncc(-c3ccc4ncsc4c3)n2)CC1 [Example 220] | 0.02
CC(C)NC(=O)CN1CCN(c2nncc(-c3ccc(C(F)(F)F)cc3)n2)CC1 [Example 221] | 0.0024
CC(C)NC(=O)CN1CCN(c2nncc(-c3ccc4c(c3)CNN4C)n2)CC1 [Example 222] | 0.026
c1nnc(N2CCOCC2)nc1CC1CCCCC1 [Example 233, 5-cyclohexylmethyl-3-morpholino-1,2,4-triazine] | 0.02
Cc1ccccc1-c1cnnc(N(Cc2ccccn2)S(C)(=O)=O)n1 [Example 236, 3-[N-(methylsulfonyl)-N-(2-pyridylmethyl)amino]-5-(o-tolyl)-1,2,4-triazine] | 0.023
Cc1ccccc1-c1cnnc(C2CCCN(c3ncccn3)C2)n1 (stereo not drawn) [Example 244, 3-[1-(pyrimidine-2-yl)-piperidin-3-yl]-5-(o-tolyl)-1,2,4-triazine] | 0.011
CC(C)CC(=O)NN1CCN(c2nncc(-c3ccc(Cl)cc3)n2)CC1 [Example 251, 5-(4-chlorophenyl)-3-[4-[(3-methylbutanoyl)amino]piperazin-1-yl]-1,2,4-triazine] | 0.0075
c1ccc(COc2cnnc(N3CCOCC3)n2)cc1 [Example 256, 5-benzyloxy-3-morpholino-1,2,4-triazine] | 0.026
Clc1ccc(CNc2cnnc(N3CCOCC3)n2)cc1 [Example 257, 5-(4-chlorobenzyl) amino-3-morpholino-1,2,4-triazine] | 0.013
CN(C)[C@@H]1CCC[C@H](NC(=O)CN2CCN(c3nncc(-c4ccc(F)cc4)n3)CC2)C1 [compound 160] | 0.013
C[C@H]1COCCC1NC(=O)CN1CCN(c2nncc(-c3ccc(Cl)cc3)n2)CC1 (stereo partly drawn) [compound 161] | 0.0061
